Laboratory results from ChEMBL document CHEMBL6182891, “Discovery of novel 1,2,3-Triazole hybrids derivatives as vasorelaxant agents: Molecular structure, Hirshfeld surface, in-vivo and in-silico investigation by molecular docking simulation” (Eur J Med Chem, 2025).

Legend:
[1] = system: Aorta; test: Vasorelaxant activity in endothelium-intact thoracic aortic rings of albino adult male Wistar rat assessed as reduction in epinephrine-induced contracture; format: functional, tissue-based
[2] = system: Aorta; test: Vasorelaxant activity in endothelium-intact thoracic aortic rings of albino adult male Wistar rat assessed as reduction in epinephrine-induced contracture at 0.05 to 0.2 mg/ml relative to control; format: functional; details: dose 0.05-0.2 mg/ml

| Structure (SMILES) | EC50 [1] | Emax [2] |
| --- | --- | --- |
| Cc1ccccc1NC(=O)Cn1cc(COC(Cn2cnc3ccccc3c2=O)c2ccccc2)nn1 (centres undefined) | 246 µM | 93.5% |
| COc1ccc(CCN(C)CCCC(C#N)(c2ccc(OC)c(OC)c2)C(C)C)cc1OC (centres undefined) [VERAPAMIL] | 39 µM | 61.7% |
| O=C(Cn1cc(COC(Cn2cnc3ccccc3c2=O)c2ccccc2)nn1)Nc1ccccc1 (centres undefined) | 568 µM | 35% |

Second part, led by results:

| EC50 [1] | Structure (SMILES) | Emax [2] |
| --- | --- | --- |
| 345 µM | O=C(Cn1cc(COC(Cn2cnc3ccccc3c2=O)c2ccccc2)nn1)Nc1ccc(F)cc1 (centres undefined) | 48.2% |
| 387 µM | COc1ccc(NC(=O)Cn2cc(COC(Cn3cnc4ccccc4c3=O)c3ccccc3)nn2)cc1 (centres undefined) | 50.9% |
| 1040 µM | Cc1ccc(NC(=O)Cn2cc(COC(Cn3cnc4ccccc4c3=O)c3ccccc3)nn2)cc1 (centres undefined) | 16.4% |
| 198 µM | O=C(Cn1cc(COC(Cn2cnc3ccccc3c2=O)c2ccccc2)nn1)Nc1ccc(Cl)cc1 (centres undefined) | 95.1% |
